The target of the test is T1, SLMO (Slowmo); MBP-SLMO (Drosophila melanogaster, UniProt Q9V3U9).
T1 construct: N-terminal MBP fusion from pMAL-c6T (BamHI/EcoRI), E. coli BL21(DE3), Ni-NTA purified; tag kept
T1 sequence (Q9V3U9 1-215): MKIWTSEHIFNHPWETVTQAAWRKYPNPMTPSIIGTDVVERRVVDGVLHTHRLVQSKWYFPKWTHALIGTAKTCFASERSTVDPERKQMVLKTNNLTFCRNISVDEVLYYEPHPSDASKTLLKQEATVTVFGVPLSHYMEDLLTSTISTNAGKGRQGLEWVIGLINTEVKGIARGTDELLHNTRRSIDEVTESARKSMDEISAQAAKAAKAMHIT
The test can be described thus: liposome lipid transfer assay, NBD dequenching. It counts as biochemical. The conditions noted are these: labelled compound, donor liposomes PC:PE:Rhod-PE:NBD-PS 56:40:3:1, acceptor PC:PE:CL 55:40:5, no chemical conversion.

As for `CCCCCCCC/C=C\CCCCCCCC(=O)OC[C@H](COP(=O)(O)OC[C@H](N)C(=O)O)OC(=O)CCCCCCCCCCCNc1ccc([N+](=O)[O-])c2nonc12` [NBD-PS], the “liposome lipid transfer assay, NBD dequenching” value is reported as “SLMO efficiently transported PS but not PE between liposomes in vitro”.
